Reference: patent US20250304567A1, “PYRROLIDIONE DERIVATIVES AS INHIBITORS OF NF KAPPA B INDUCING KINASE” (priority 2022, published 2025)
Where two headings read alike, the source gives them in different places.

How the values were obtained:
[1] = target: Recombinant Human NF-kappaB-Inducing Kinase (NIK/MAP3K14) (Homo sapiens, UniProt Q99558); assay: Inhibition of auto-phosphorylation of recombinant human NIK/MAP3K14 activity (AlphaScreen); assay type: biochemical; conditions: 5 μM ATP, 1 nM NIK, average if tested more than once
Chain of Recombinant Human NF-kappaB-Inducing Kinase (NIK/MAP3K14) (Q99558 whole entry): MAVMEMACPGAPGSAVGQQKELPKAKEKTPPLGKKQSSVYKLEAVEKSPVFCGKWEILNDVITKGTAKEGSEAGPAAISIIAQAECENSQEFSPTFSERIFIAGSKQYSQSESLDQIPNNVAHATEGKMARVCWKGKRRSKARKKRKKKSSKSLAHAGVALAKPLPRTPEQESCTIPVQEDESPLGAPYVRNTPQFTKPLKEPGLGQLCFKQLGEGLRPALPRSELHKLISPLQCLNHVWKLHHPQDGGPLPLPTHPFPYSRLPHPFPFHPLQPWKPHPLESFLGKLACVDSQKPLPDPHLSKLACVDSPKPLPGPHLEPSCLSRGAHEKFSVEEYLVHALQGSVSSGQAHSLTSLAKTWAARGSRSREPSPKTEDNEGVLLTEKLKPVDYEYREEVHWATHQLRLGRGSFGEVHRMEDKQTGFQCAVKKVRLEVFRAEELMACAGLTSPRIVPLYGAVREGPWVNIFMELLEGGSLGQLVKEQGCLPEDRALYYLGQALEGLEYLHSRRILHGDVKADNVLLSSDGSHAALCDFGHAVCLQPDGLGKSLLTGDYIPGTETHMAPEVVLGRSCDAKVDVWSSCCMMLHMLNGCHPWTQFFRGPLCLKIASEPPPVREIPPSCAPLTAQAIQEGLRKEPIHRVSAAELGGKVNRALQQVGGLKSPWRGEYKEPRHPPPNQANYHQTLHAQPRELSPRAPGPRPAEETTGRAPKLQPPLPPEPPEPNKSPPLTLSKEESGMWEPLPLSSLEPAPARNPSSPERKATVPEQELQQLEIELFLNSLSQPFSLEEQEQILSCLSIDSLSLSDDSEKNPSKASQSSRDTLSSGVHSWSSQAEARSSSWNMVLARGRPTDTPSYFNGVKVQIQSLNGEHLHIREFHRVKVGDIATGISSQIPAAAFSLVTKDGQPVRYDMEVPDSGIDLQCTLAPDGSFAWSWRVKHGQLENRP
Description: Assay 1: Inhibition of Auto-Phosphorylation of Recombinant Human NF-kappaB-Inducing Kinase (NIK/MAP3K14) Activity (AlphaScreen™)
NIK/MAP3K14 auto-phosphorylation activity was measured using the AlphaScreen™ (αscreen) format (Perkin Elmer). All compounds tested were dissolved in dimethyl sulfoxide (DMSO) and further dilutions were made in assay buffer. The final DMSO concentration was 0.7% (v/v) in assays. The assay buffer was 50 mM Tris pH 7.5 containing 1 mM EGTA (ethylene glycol tetraacetic acid), 1 mM DTT (dithiothreitol), 0.1 mM Na3VO4, 5 mM MgCl2, and 0.01% Tween®20. The assays were carried out in 384 well Proxiplates (Perkin Elmer). The incubations consisted of the compound, 5 μM Adenosine-5′-triphosphate (ATP), and 1 nM NIK/MAP3K14. Incubations were initiated by the addition of GST-tagged NIK/MAP3K14 enzyme, carried out for 2 h at 25° C. and terminated by addition of stop buffer containing anti-phospho-IKK Ser176/180 antibody. Protein A Acceptor and Glutathione-Donor beads were added before reading using an EnVision Multilabel Plate Reader (Perkin Elmer). The signal obtained in the wells was normalized using high (full enzyme activity, 0.7% DMSO) and low controls (no enzyme activity, 0.7% DMSO, no ATP). IC50's were determined by fitting a sigmoidal curve to % inhibition of control versus Log10 compound concentration.

[2] = test system: p-IKKa levels in L363 (NIK translocated multiple myeloma) cells; assay: Effect of compounds on p-IKKa levels in L363 (NIK translocated multiple myeloma) cells (AlphaLISA SureFire Ultra p-IKKa Ser176/180); assay type: cell-based, human; conditions: average if tested more than once, read-out: Assay 2 IC50
Description: Assay 2: Effect of Compounds on p-IKKa Levels in L363 (NIK Translocated Multiple Myeloma) Cells
All compounds tested were dissolved and serially diluted in DMSO, 1:3 dilution for 11 points in an Echo compatible plate. 100% DMSO was added to columns 12 and 24 of the plate to serve as high and low signal controls. This compound plate was used to spot 20 nL of compound or DMSO into a Greiner 384 well TC plate (781080). The final DMSO concentration was 0.3% (v/v) in cell assays. Human L363 cells (ATCC) were cultured in RPM11640 medium supplemented with GlutaMax, non-essential amino acids, sodium pyruvate and 10% fetal bovine serum. Cells were routinely maintained at densities of 0.2×10^6 cells per ml-2×10^6 cells per mL at 37° C. in a humidified 5% CO2 atmosphere incubator. Cells were passaged twice a week splitting back to obtain the low density. The day before the assay, cells were washed twice in HBSS (Hank's Balanced Salt Solution), resuspended in Dulbecco's Modified Eagle Medium (DMEM)+0.5% IgG and protease free BSA (Jackson Immuno Research Laboratories), +/−250 ng/ml recombinant human B-cell activating factor (BAFF/BLyS/TNFSF13B) and incubated overnight at 37° C. in a humidified 5% CO2 atmosphere (bulk stimulation with or without BAFF). The next day, the cell concentration was adjusted to 1×10^7 cells/ml in DMEM+/−250 ng/ml BAFF+/−10 μM MG132 and plated at 10 μl/well into compound or DMSO spotted 384 well TC plates. Seeded cells were incubated at 37° C. in a humidified 5% CO2 atmosphere for 6 h. After 6 h, the plates were removed from the incubator and cell lysis was achieved by the addition of 2.5 μl 5× lysis buffer containing protease and phosphatase inhibitors, followed by shaking on a plate shaker at room temperature for 15 min. At the end of this incubation, lysed cells were sequentially treated and incubated with acceptor and donor bead mixes according to the manufacturer's protocol for a 1 plate/2-incubation suspension cell assay (AlphaLISA SureFire Ultra p-IKKa (Ser 176/180) Assay Kit (Perkin Elmer). Plates were read using an EnVision Multilabel Plate Reader (Perkin Elmer). Within an experiment, a concentration response curve for each compound was run in duplicate. The signal obtained in the test wells was normalized using high signal (BAFF stimulated cells, DMSO, MG132) and low signal (unstimulated cells, DMSO) controls. To determine the IC50, a sigmoidal curve was fitted to the plot of % inhibition versus Log10 compound concentration.

[3] = Homo sapiens, L-363, p-IKKa levels in L363 cells

Structure (SMILES) | IC50 [1] [nM] | IC50 [2, 3] [nM] | IC50 ([2]; p-IKKa levels in L363 cells) [nM]
CC(Nc1nccc(-c2nc(-c3cc([C@]4(O)CCN(C)C4=O)ccn3)cs2)n1)c1cnn(C)c1 (single isomer, unassigned) [Example 158, (R)-3-hydroxy-1-methyl-3-(2-(2-(2-(((R,S)-1-(1-methyl-1H-pyrazol-4-yl)ethyl)amino)pyrimidin-4-yl)thiazol-4-yl)pyrrolid-4-yl)pyrrolidine-2-one or (S)-3-hydroxy-1-methyl-3-(2-(2-(2-(((R,S)-1-(1-methyl-1H-pyrazol-4-yl)ethyl)amino)pyrimidin-4-yl)thiazol-4-yl)pyrrolid-4-yl)pyrrolidine-2-one] | < 100 | 100 to 500 | 
CN1CC[C@@](O)(c2cccc(-c3nc(-c4ccnc(N)n4)cs3)c2)C1=O [Example 6, (R)-3-(3-(4-(2-Aminopyrimidin-4-yl)thiazol-2-yl)phenyl)-3-hydroxy-1-methylpyrrolidin-2-one] | 100 to 500 | > 501 | 
CC(Nc1nccc(-c2csc(-c3cccc([C@]4(O)CCN(C)C4=O)c3)n2)n1)c1ccnn1C (stereo partly drawn) [Example 119, (R)-3-hydroxy-1-methyl-3-(3-(4-(2-(((R,S)-1-(1-methyl-1H-pyrazol-5-yl)ethyl)amino)pyrimidin-4-yl)thiazol-2-yl)phenyl)pyrrolidin-2-one] | < 100 | 100 to 500 | 
CCn1cc(Nc2nccc(-c3csc(-c4cccc([C@]5(O)CCN(C)C5=O)c4)n3)n2)c(C)n1 [Example 270, (R)-3-(3-(4-(2-((1-Ethyl-3-methyl-1H-pyrazol-4-yl)amino)pyrimidin-4-yl)thiazol-2-yl)phenyl)-3-hydroxy-1-methylpyrrolidin-2-one] | < 100 | < 100 | 
CN1CC[C@@](O)(c2cccc(-c3nc(-c4ccnc(NC5(CO)CCC5)n4)cs3)c2)C1=O [Example 191] | < 100 | > 501 | 
CN1CC[C@@](O)(c2cccc(-c3nc(-c4ccnc(Nc5ccnn5CC5CC5)n4)cs3)c2)C1=O [Example 65, (R)-3-(3-(4-(2-((1-(cyclopropylmethyl)-1H-pyrazol-5-yl)amino)pyrimidin-4-yl)thiazol-2-yl)phenyl)-3-hydroxy-1-methylpyrrolidin-2-one] | 100 to 500 | > 501 | 
Cc1c(Nc2nccc(-c3csc(-c4cccc([C@]5(O)CCN(C)C5=O)c4)n3)n2)ncn1C [Example 178] | > 501 | > 501 | 
CN1CC[C@@](O)(c2cccc(-c3nc(-c4ccnc(NC5CCN(c6cnn(C)c6)C5)n4)cs3)c2)C1=O (stereo partly drawn) [Example 120, (R)-3-hydroxy-1-methyl-3-(3-(4-(2-(((R,S)-1-(1-methyl-1H-pyrazol-4-yl)pyrrolidin-3-yl)amino)pyrimidin-4-yl)thiazol-2-yl)phenyl)pyrrolidin-2-one] | 100 to 500 | > 501 | 
CN1CC[C@@](O)(c2cccc(-c3nc(-c4ccnc(Nc5ccn(C(F)(F)F)n5)n4)cs3)c2)C1=O [Example 257, (R)-3-Hydroxy-1-methyl-3-(3-(4-(2-((1-(trifluoromethyl)-1H-pyrazol-3-yl)amino)pyrimidin-4-yl)thiazol-2-yl)phenyl)pyrrolidin-2-one] | < 100 | > 501 | 
CN1C(=O)[C@](O)(c2cncc(-c3csc(-c4ccnc(Nc5ccn(C)n5)n4)n3)c2)C[C@H]1C(F)(F)F (single isomer, unassigned) [Example 61] | < 100 | 100 to 500 | 
CN1CCC(O)(c2ccnc(-c3nc(-c4ccnc(Nc5ccn(C)n5)n4)cs3)c2)C1=O (single isomer, unassigned) [Example 33, 3-hydroxy-1-methyl-3-(2-(4-(2-((1-methyl-1H-pyrazol-3-yl)amino)pyrimidin-4-yl)thiazol-2-yl)pyridin-4-yl)pyrrolidin-2-one] | > 501 |  | > 501
CN1C(=O)[C@@](O)(c2cccc(-c3nc(-c4ccnc(Nc5ccn(C)n5)n4)cs3)c2)C[C@H]1C(F)(F)F (relative stereo) [Example 38, (trans)-3-hydroxy-1-methyl-3-(3-(4-(2-((1-methyl-1H-pyrazol-3-yl)amino)pyrimidin-4-yl)thiazol-2-yl)phenyl)-5-(trifluoromethyl)pyrrolidin-2-one] | < 100 |  | 100 to 500
CN1CC[C@@](O)(c2cccc(-c3nc(-c4ccnc(N[C@H]5CCC[C@@H]5O)n4)cs3)c2)C1=O [Example 108, (R)-3-hydroxy-3-(3-(4-(2-(((1S,2S)-2-hydroxycyclopentyl)amino)pyrimidin-4-yl)thiazol-2-yl)phenyl)-1-methylpyrrolidin-2-one] | 100 to 500 | > 501 | 
C[C@@H](Nc1nccc(-c2csc(-c3cccc([C@]4(O)CCN(C)C4=O)c3)n2)n1)c1cn[nH]c1 (single isomer, unassigned) [Example 293] | < 100 |  | 100 to 500
C[C@@H](Nc1nccc(-n2ccc(-c3cccc([C@]4(O)CCN(C)C4=O)c3)n2)n1)c1cnn(C)c1 (single isomer, unassigned) [Example 94] | < 100 | > 501 | 
CC(Nc1nccc(-c2csc(-c3cccc([C@]4(O)CCN(C)C4=O)c3)n2)n1)c1ncco1 (stereo partly shown) [Example 199] | < 100 | > 501 | 
CN1CC[C@@](O)(c2cccc(-c3nc(-c4ccnc(Nc5nc6ccccc6n5C)n4)cs3)c2)C1=O [Example 272, (R)-3-Hydroxy-1-methyl-3-(3-(4-(2-((1-methyl-1H-benzo[d]imidazol-2-yl)amino)pyrimidin-4-yl)thiazol-2-yl)phenyl)pyrrolidin-2-one] | > 501 | > 501 | 
CC(C)n1cc(Nc2nccc(-c3csc(-c4cccc([C@]5(O)CCN(C)C5=O)c4)n3)n2)cn1 [Example 276, (R)-3-Hydroxy-3-(3-(4-(2-((1-isopropyl-1H-pyrazol-4-yl)amino)pyrimidin-4-yl)thiazol-2-yl)phenyl)-1-methylpyrrolidin-2-one] | < 100 | < 100 | 
CN1CC[C@@](O)(c2cccc(-c3nc(-c4ccnc(Nc5ccnn5CC(F)F)n4)cs3)c2)C1=O [Example 278, (R)-3-(3-(4-(2-((1-(2,2-Difluoroethyl)-1H-pyrazol-5-yl)amino)pyrimidin-4-yl)thiazol-2-yl)phenyl)-3-hydroxy-1-methylpyrrolidin-2-one] | 100 to 500 | > 501 | 
Cc1nn(C)cc1CNc1nccc(-c2csc(-c3cccc([C@]4(O)CCN(C)C4=O)c3)n2)n1 [Example 210] | < 100 | > 501 | 
CN1CC[C@@](O)(c2cccc(-c3nc(-c4ccnc(Nc5cn(CC(F)F)nc5OC5CC5)n4)cs3)c2)C1=O [Example 9, (R)-3-(3-(4-(2-((3-Cyclopropoxy-1-(2,2-difluoroethyl)-1H-pyrazol-4-yl)amino)pyrimidin-4-yl)thiazol-2-yl)phenyl)-3-hydroxy-1-methylpyrrolidin-2-one] | < 100 | < 100 | 
COCCn1ccc(Nc2nccc(-c3csc(-c4cccc([C@]5(O)CCN(C)C5=O)c4)n3)n2)n1 [Example 260, (R)-3-Hydroxy-3-(3-(4-(2-((1-(2-methoxyethyl)-1H-pyrazol-3-yl)amino)pyrimidin-4-yl)thiazol-2-yl)phenyl)-1-methylpyrrolidin-2-one] | < 100 | 100 to 500 | 
Cc1ncccc1CNc1nccc(-c2csc(-c3cccc([C@]4(O)CCN(C)C4=O)c3)n2)n1 [Example 219] | < 100 | > 501 | 
